The supplement of paper PMC10307832

Tests used:
Experiment in all cases: relative viability (nuclei count vs DMSO), 5 days (fraction); higher = more cells survive
PC-3 [JPC-3] = system: PC-3 [JPC-3]
Procedure, shortened: (§1)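 Relative viability divides the nuclei count in treated wells by that in vehicle wells. Lung cancer cell lines were seeded in 1536-well plates, dosed by pin tool the next day, and fixed and stained after 5 days in one step with final 0.05% Triton X-100, 1% formaldehyde and 1 ug/ml Hoechst. Dosing was a single drug or a fixed anchor-drug dose plus five library-drug doses (not always all listed) in √10 steps, and values are medians of duplicate plates imaged at 4×.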

SW 1573 = system: SW 1573
Procedure, shortened: as §1

LK-2 = system: LK-2
Procedure, shortened: as §1

NCI-H3122 = system: NCI-H3122
Procedure, shortened: as §1

NCI-H2170 = system: NCI-H2170
Procedure, shortened: as §1

EMC-BAC-2 = system: EMC-BAC-2
Procedure, shortened: as §1

NCI-H322M = system: NCI-H322M
Procedure, shortened: as §1

SW 900 = system: SW 900
Procedure, shortened: as §1

NCI-H596 = system: NCI-H596
Procedure, shortened: as §1

NCI-H1993 = system: NCI-H1993
Procedure, shortened: as §1

A-427 = system: A-427
Procedure, shortened: as §1

NCI-H2009 = system: NCI-H2009
Procedure, shortened: as §1

LXF-289 = system: LXF-289
Procedure, shortened: as §1

HARA = system: HARA
Procedure, shortened: as §1

NCI-H1792 = system: NCI-H1792
Procedure, shortened: as §1

HOP-62 = system: HOP-62
Procedure, shortened: as §1

NCI-H1944 = system: NCI-H1944
Procedure, shortened: as §1

NCI-H522 = system: NCI-H522
Procedure, shortened: as §1

NCI-H2228 = system: NCI-H2228
Procedure, shortened: as §1

SK-MES-1 = system: SK-MES-1
Procedure, shortened: as §1

COc1cc2nccc(Oc3ccc(NC(=O)Nc4cc(C)on4)c(Cl)c3)c2cc1OC [Tivozanib] + Nc1nc2[nH]cc(CCc3ccc(C(=O)N[C@@H](CCC(=O)O)C(=O)O)cc3)c2c(=O)[nH]1 [Pemetrexed] (partner 0.2 µM)
relative viability (PC-3 [JPC-3]; first compound 0.01581 µM): 1.09
relative viability (PC-3 [JPC-3]; first compound 0.05 µM): 1.09
relative viability (PC-3 [JPC-3]; first compound 0.1581 µM): 1.06
relative viability (PC-3 [JPC-3]; first compound 0.5 µM): 0.936
relative viability (SW 1573; first compound 0.005 µM): 0.761
relative viability (SW 1573; first compound 0.01581 µM): 0.766
relative viability (SW 1573; first compound 0.05 µM): 0.805
relative viability (SW 1573; first compound 0.1581 µM): 0.666
relative viability (SW 1573; first compound 0.5 µM): 0.775
relative viability (LK-2; first compound 0.005 µM): 0.254
relative viability (LK-2; first compound 0.01581 µM): 0.258
relative viability (LK-2; first compound 0.05 µM): 0.289
relative viability (LK-2; first compound 0.1581 µM): 0.203
relative viability (LK-2; first compound 0.5 µM): 0.197
relative viability (NCI-H3122; first compound 0.005 µM): 0.197
relative viability (NCI-H3122; first compound 0.01581 µM): 0.222
relative viability (NCI-H3122; first compound 0.05 µM): 0.198
relative viability (NCI-H3122; first compound 0.1581 µM): 0.204
relative viability (NCI-H3122; first compound 0.5 µM): 0.19
relative viability (NCI-H2170; first compound 0.005 µM): 0.24
relative viability (NCI-H2170; first compound 0.01581 µM): 0.262
relative viability (NCI-H2170; first compound 0.05 µM): 0.56
relative viability (NCI-H2170; first compound 0.5 µM): 0.255
relative viability (EMC-BAC-2; first compound 0.005 µM): 0.463
relative viability (EMC-BAC-2; first compound 0.01581 µM): 0.465
relative viability (EMC-BAC-2; first compound 0.05 µM): 0.431
relative viability (EMC-BAC-2; first compound 0.1581 µM): 0.507
relative viability (EMC-BAC-2; first compound 0.5 µM): 0.398
relative viability (NCI-H322M; first compound 0.005 µM): 0.586
relative viability (NCI-H322M; first compound 0.01581 µM): 0.621
relative viability (NCI-H322M; first compound 0.05 µM): 0.588
relative viability (NCI-H322M; first compound 0.1581 µM): 0.635
relative viability (NCI-H322M; first compound 0.5 µM): 0.602
relative viability (SW 900; first compound 0.005 µM): 0.463
relative viability (SW 900; first compound 0.01581 µM): 0.465
relative viability (SW 900; first compound 0.05 µM): 0.507
relative viability (SW 900; first compound 0.5 µM): 0.493
relative viability (NCI-H596; first compound 0.005 µM): 0.492
relative viability (NCI-H596; first compound 0.01581 µM): 0.502
relative viability (NCI-H596; first compound 0.05 µM): 0.51
relative viability (NCI-H596; first compound 0.5 µM): 0.508
relative viability (NCI-H1993; first compound 0.005 µM): 0.572
relative viability (NCI-H1993; first compound 0.01581 µM): 0.467
relative viability (NCI-H1993; first compound 0.05 µM): 0.674
relative viability (NCI-H1993; first compound 0.1581 µM): 0.499
relative viability (NCI-H1993; first compound 0.5 µM): 0.662
relative viability (A-427; first compound 0.005 µM): 0.973
relative viability (A-427; first compound 0.01581 µM): 0.952
relative viability (A-427; first compound 0.05 µM): 0.961
relative viability (A-427; first compound 0.1581 µM): 0.926
relative viability (A-427; first compound 0.5 µM): 0.979
relative viability (NCI-H2009; first compound 0.005 µM): 0.994
relative viability (NCI-H2009; first compound 0.01581 µM): 1.04
relative viability (NCI-H2009; first compound 0.05 µM): 0.995
relative viability (NCI-H2009; first compound 0.1581 µM): 1.06
relative viability (NCI-H2009; first compound 0.5 µM): 0.933
relative viability (LXF-289; first compound 0.005 µM): 0.853
relative viability (LXF-289; first compound 0.01581 µM): 0.9
relative viability (LXF-289; first compound 0.05 µM): 0.929
relative viability (LXF-289; first compound 0.1581 µM): 1.04
relative viability (LXF-289; first compound 0.5 µM): 0.887
relative viability (HARA; first compound 0.005 µM): 0.275
relative viability (HARA; first compound 0.01581 µM): 0.259
relative viability (HARA; first compound 0.05 µM): 0.249
relative viability (HARA; first compound 0.1581 µM): 0.243
relative viability (HARA; first compound 0.5 µM): 0.245
relative viability (NCI-H1792; first compound 0.005 µM): 0.865
relative viability (NCI-H1792; first compound 0.01581 µM): 0.792
relative viability (NCI-H1792; first compound 0.05 µM): 1.02
relative viability (NCI-H1792; first compound 0.5 µM): 1
relative viability (HOP-62; first compound 0.005 µM): 0.353
relative viability (HOP-62; first compound 0.01581 µM): 0.301
relative viability (HOP-62; first compound 0.05 µM): 0.245
relative viability (HOP-62; first compound 0.1581 µM): 0.36
relative viability (HOP-62; first compound 0.5 µM): 0.232
relative viability (NCI-H1944; first compound 0.005 µM): 0.545
relative viability (NCI-H1944; first compound 0.01581 µM): 0.568
relative viability (NCI-H1944; first compound 0.05 µM): 0.652
relative viability (NCI-H1944; first compound 0.1581 µM): 0.659
relative viability (NCI-H1944; first compound 0.5 µM): 0.611
relative viability (NCI-H522; first compound 0.005 µM): 1.03
relative viability (NCI-H522; first compound 0.01581 µM): 1.1
relative viability (NCI-H522; first compound 0.05 µM): 1.04
relative viability (NCI-H522; first compound 0.1581 µM): 0.824
relative viability (NCI-H522; first compound 0.5 µM): 1.15
relative viability (NCI-H2228; first compound 0.005 µM): 0.31
relative viability (NCI-H2228; first compound 0.01581 µM): 0.32
relative viability (NCI-H2228; first compound 0.05 µM): 0.369
relative viability (NCI-H2228; first compound 0.1581 µM): 0.346
relative viability (NCI-H2228; first compound 0.5 µM): 0.315
relative viability (SK-MES-1; first compound 0.005 µM): 0.89
relative viability (SK-MES-1; first compound 0.01581 µM): 0.956
relative viability (SK-MES-1; first compound 0.05 µM): 1.13
relative viability (SK-MES-1; first compound 0.1581 µM): 0.948
relative viability (SK-MES-1; first compound 0.5 µM): 0.994
